Where only a bound is given, the exact number is not on record here.

In the case of `COc1ccc2c(c1)CCC1=C2CCC2(C)C(=O)CC=C12` (stereo not given), the melting point lay within 111 to 113 °C. Turning to `CN(C)C(=O)N(COCCCl)c1ccc(C(F)(F)F)cc1`, the melting point is 39 °C.

`CCOC(=O)C(C#N)=Cc1ccc(OCCc2nc(-c3ccccc3Cl)oc2C)cc1` showed a melting point of 120 to 121 °C. Then `COc1ccc(NCCCOc2ccc3cc(OCCCNc4ccc(OC)cc4)ccc3c2)cc1`, with 129 °C. `CCCN1CCN=C1c1ccccc1C(=O)c1ccc(Cl)cc1` came in with a melting point of 131 to 133 °C. Consider `CCOC(=O)c1cc2n(c1)C(C)N(C(=O)OCC)c1ccccc1-2` (stereo not given), for which the melting point lay in the range of 125 to 127 °C. In the case of `CCCc1cc(C(=O)NC(C)(C)C)no1`, the melting point lay within 34 to 37 °C.

`COc1ccc(C=CC(=O)C2C(=O)C=C(C)OC2=O)cc1` (stereo not given) had a melting point of 205 to 207 °C. With `Cc1cc2c(cc1C)Sc1cscc1C(=O)N2`, the melting point fell in the range of 264 to 265 °C. In the case of `CC1=CCCN(C)C1COC(=O)c1c[nH]c2ccccc12` (stereo not given), the melting point amounted to 172 °C. Consider `COC(=O)Cc1ccc(S(C)(=O)=O)c(S(C)(=O)=O)c1`, for which the melting point lay in the range of 157 to 158 °C. Consider `COCCOc1ccc([N+](=O)[O-])cc1I`, for which the melting point was in the range of 35 to 36 °C.

Take `O=C1OCc2c(c3cc(-c4ccc(OC(F)(F)F)cc4)ccc3n2Cc2ccccc2)C1=O`: the melting point lay in the range of 239 to 240 °C.

Compound `Nc1c2c(=O)[nH]c(C(F)(F)F)nc2nn1-c1ccccc1` showed a melting point of 267 to 269 °C.

Turning to `COc1c(C)c(C(=O)c2ccc3c(c2)c(=O)n(CC(=O)N(C)C)c(=O)n3C)n2ccccc12`, the melting point was determined as 276 °C. Turning to `CC(C)n1nc(-c2nc(Sc3ccc(F)cc3)c(N)nc2-c2ccccc2)ccc1=O`, the melting point lay in the range of 148 to 150 °C. The result for `O=C(CN1CC(F)(F)Cn2c1nc(-c1ccncn1)cc2=O)c1ccccc1` reads 233 to 234 °C; that for `CCCCCC(=O)c1c[nH]c2c(OC)cccc2c1=O`, 169 to 171 °C; that for `CC(=O)NCC1CCCc2cc(NS(=O)(=O)c3cccc(F)c3)ccc21` (stereo not given), 136 to 137 °C. Compound `CS(=O)(=O)c1cccc(S(C)(=O)=O)n1` had a melting point of 192 to 195 °C.

The compound `CC(C)(C#N)c1cc(-n2cncc2C=O)cc(C(C)(C)C#N)c1` returned a melting point of 108 to 111 °C.

On to `Cc1c(Cl)ccc2c3cccc(C(=O)O)c3n(C)c12`, for which the melting point is 237 °C. In turn, `C=C1N(C(C)(C)C)C(=O)OC12CCN(C(=O)CC)CC2` gave a melting point of 104 to 105 °C. In turn, `CCOC(=O)C(O)c1oc(-n2ccnc2C)nc1-c1ccc(Cl)cc1` (stereo not given) came in with a melting point of 197 to 198 °C. Compound `O=C(Nc1ccccc1)C1=C(O)c2ccccc2N(c2ccccc2)C1` had a melting point of 120 °C. Turning to `N#CC(C#N)=C1Sc2nc3ccc(Cl)cc3nc2S1`, the melting point was > 300 °C. The compound `COc1cc2nc(N3CCN(C(=O)C4CCc5ccccc5O4)CC3)nc(N)c2cc1OC` (stereo not given) displayed a melting point of 165 to 167 °C. Regarding `CC1(C)CC(C)(O)C2C3CCCCC3C2(C)C1` (stereo not given), the melting point fell in the range of 76.6 to 77.4 °C.

In turn, `Nc1cc(C=O)nc(Cc2ccc(F)cc2)c1F` showed a melting point of 130 to 131 °C. In the case of `CC(C)C(=O)NC1CCc2c(c3cc(C#N)ccc3n2Cc2ccccc2C(F)(F)F)C1` (stereo not given), the melting point lay within 222 to 225 °C. With `C[C@H](NC(=O)[C@H](Cc1ccccc1)NC(=O)OCc1ccccc1)C(=O)O`, the melting point was in the range of 160 to 164 °C. The result for `O=C(O)CCCCCCCNS(=O)(=O)c1ccc(Cl)cc1` reads 122 to 124 °C; that for `O=[N+]([O-])c1cc(NS(=O)(=O)CCl)ccc1F`, 112 to 113 °C. The result for `Cc1ccnc2c1C(=O)CC(c1cc(Cl)ccc1Cl)C2` (stereo not given) reads 116 to 117 °C. The result for `Oc1cccc2c1CC1OC1C2` (stereo not given) reads 143 to 146 °C. In the case of `NC(=O)c1nnn(Cc2cccc(Cl)c2Cl)c1N`, the melting point is 224 to 226 °C. The compound `COc1ccccc1N1CCN(Cc2ccc(CC(=O)O)cc2)CC1` yielded a melting point of 87 to 90 °C. As for `CNC(=S)NCCSCc1c[nH]cn1`, the melting point is 96 to 98 °C. Turning to `CSc1nc(-c2cccnc2)n(-c2ccc(C)c(C)c2)c(=O)c1C#N`, the melting point is > 250 °C. Then `O=C(c1cnc(Cl)nc1C(F)(F)F)N1Cc2cccn2Cc2ccccc21`, with 221 to 223 °C. Consider `COc1cccc(NN=C(Sc2ccc(Cl)cc2)C(C)=O)c1`, for which the melting point fell in the range of 107 to 108 °C. Turning to `O=C1Nc2cc(C(F)(F)F)cnc2C1C(=O)OCc1ccccc1` (stereo not given), the melting point is > 250 °C. `O=C(NCc1ccc(Cl)cc1)c1cn(CCN2CCOCC2)c2ccc(C#CCO)cc2c1=O`: the melting point lay in the range of 215 to 218 °C. Then `COC[C@H](C)NC(=O)c1c[nH]c2ncc(-c3nn(C)c4cc(F)c(F)cc34)nc12`, with 295 to 297 °C; and `COc1ccc(N(CC(=O)NCCC(=O)O)C(=O)c2ccc(Cl)cc2)cc1`, with 129 to 131 °C. For the compound `O=C(NCc1ncc(Cl)cc1Cl)c1c(Cl)cccc1Cl`, the melting point is 161 to 165 °C. `O=C(O)c1cccc(-c2ccc3c(c2)C(c2ccc(Cl)cc2Cl)CO3)c1` (stereo not given) came in with a melting point of 192 to 193 °C. As to `Nc1cc(N2CC(c3cccs3)OC2=O)ccn1` (stereo not given), the melting point lay in the range of 151 to 153 °C. For the compound `CCCCCCCCCCCCNC(=O)c1cc(Br)c(OCC(=O)O)c(-c2ccccc2F)c1`, the melting point fell in the range of 128 to 138 °C.

For the compound `CCOC(=O)c1ccc2[nH]cc(CCCI)c2c1`, the melting point came out at 81 °C. As to `CCOCc1nc2c(N)nc3cc(OCc4cccc(C)c4)ccc3c2n1CC(C)C`, the melting point was in the range of 207 to 208 °C. The compound `O=c1cc2c(nn1-c1ccc(Cl)cc1)-c1cccnc1CC2` registered a melting point of 166 to 167 °C.

For the compound `CCOC(=O)Cc1ccc(-c2nc(COc3ccc(COc4nn(-c5ccccc5)cc4/C=C/c4csc(C)n4)cc3OC)c(C)o2)cc1`, the melting point lay within 153 to 155 °C.

Take `O=C(O)c1cccc2cc3ccccc3cc12`: the melting point turned out to be 245 °C.

In turn, `CN(C)C(=O)c1nc2n(n1)-c1ccc([N+](=O)[O-])cc1C(c1ccccc1)=NC2` displayed a melting point of 209 to 211 °C. In the case of `CC(C)(C)NC(=O)c1ccc(C(F)(F)F)cc1`, the melting point fell in the range of 146 to 148 °C. Compound `CN(C)CCOc1cc2c(Nc3cccc(Br)c3)c(C#N)cnc2cn1` yielded a melting point of 138 to 139 °C. `CC(C)(C)c1cc(C(=O)NCCc2ccc([N+](=O)[O-])cc2)cc(C(C)(C)C)c1O`: the melting point was 204 to 206 °C. Then `CCCCNc1ncnc2c1ncn2CCCN1CCC(NC(=O)c2ccccc2)CC1`, with 190 to 192 °C; and `O=C(Nc1ccc(-n2nc(C(F)(F)F)cc2C(F)(F)F)cc1)c1cc2cc(F)ccc2[nH]1`, with 253 to 255 °C. Turning to `COc1ccccc1-c1[nH]nc2c1C(=O)c1c(NC(C)=O)cccc1-2`, the melting point is 276 °C. In turn, `O=C(Nc1n[nH]c(-c2ccc(F)cc2)c1-c1ccncc1)C(F)(F)F` gave a melting point of 260 to 265 °C. The result for `CS(=O)(=O)c1ccc(CN(C2CCOCC2)S(=O)(=O)c2ccc(Cl)cc2)cc1` reads 158 to 160 °C; that for `CCOc1ccc(Nc2ncc3c(n2)N(c2ccccc2)C(=O)N(c2c(Cl)cccc2Cl)C3)cc1`, 224 to 226 °C. Take `CNS(=O)(=O)c1cc(C(=O)OC)cc(N2CCCC2)c1Oc1ccccc1`: the melting point was in the range of 138 to 139 °C. As to `CCCCn1nc(SCCCCCC(=O)O)c(C(=O)O)c1Cc1cc2c(cc1Cl)OCO2`, the melting point turned out to be 70 °C. As to `CNC(=S)C1(c2cccc(C)n2)CCCS1` (stereo not given), the melting point turned out to be 121 °C. In turn, `Nc1cc(Cl)c(Br)cc1[N+](=O)[O-]` registered a melting point of 185 to 195 °C.

For `O=C1CCC(c2ccc(N=C(CCc3ccccc3)c3ccc(O)cc3O)cc2)=NN1`, the melting point lay in the range of 208 to 210 °C.

In turn, `CCN1Cn2c(=O)cc(-c3cccc(C(F)(F)F)c3)n3cnc(c23)C1=O` gave a melting point of 278 to 280 °C. As for `CSc1nn2c(N)ncnc2c1S(=O)(=O)c1ccccc1`, the melting point is > 280 °C. `CCCCN1CC(=O)N2[C@@H](c3ccc(NC(C)=O)cc3)c3[nH]c4ccccc4c3C[C@@H]2C1=O` (relative stereo): the melting point turned out to be 246 °C. As to `Cc1cc(-c2cc(C(F)(F)F)n3ncc(-c4nc(-c5cnc(N)nc5)no4)c3n2)ccc1C(F)(F)F`, the melting point was 272 °C.

The compound `O=C(O)c1cc(S(=O)(=O)N2CCC(CO)CC2)ccc1Cl` returned a melting point of 185 to 187 °C. Then `COc1ccc(Cc2cc(Oc3c(C)cc(C=C4N=C(C)OC4=O)cc3C)ccc2OC)cn1`, with 164 to 165 °C; and `O=C1N(c2c(Cl)cccc2Cl)Cc2cnc(Nc3cccc4ccccc34)nc2N1c1ccccc1`, with 213 to 214 °C; and `CC(C)(C)c1cnnc(NN)n1`, with 117 to 118 °C.

For `O=c1c2c(O)cccc2[nH]c2c([N+](=O)[O-])ccc(Cl)c12`, the melting point was in the range of 265 to 267 °C. For `Oc1ccc(O)c2c1CC=CC2`, the melting point fell in the range of 208 to 211 °C. In the case of `CN(C)c1nn(-c2cc(F)c(C#N)cc2F)c(=O)n1N`, the melting point was 154 to 155 °C.

`CCOC(=O)N1CCN(c2c(F)c(N)c3c(=O)c(C(=O)O)cn(C4CC4)c3c2F)C(C)C1` (stereo not given): the melting point fell in the range of 220 to 225 °C. Regarding `CN(C)CC(=O)Nc1nc(-c2ccco2)c(C(=O)C2CCOCC2)s1`, the melting point lay in the range of 129 to 130 °C. `Cc1nnsc1CS(=O)(=O)c1ccccc1` showed a melting point of 118 °C. In the case of `CC(=O)OC1CSC(Oc2cc(-c3ccc(F)nc3)cnc2F)C(OC(C)=O)C1OC(C)=O` (stereo not given), the melting point fell in the range of 135 to 136 °C. Regarding `C=Cn1nc(-c2ccc(OC)cc2)cc(C(=O)NC)c1=O`, the melting point was in the range of 130 to 133 °C.

With `CS(=O)(=O)C(=C1CN(C(c2ccccc2)c2ccccc2)C1)c1ccccc1O`, the melting point amounted to 196 °C.

In turn, `CCOC(=O)CC(O)Cc1ccc([N+](=O)[O-])cc1` (stereo not given) gave a melting point of 71 to 72 °C. Compound `C=C1C(NC(=O)C(F)(F)F)CC(OC)OC1C` (stereo not given) showed a melting point of 160 to 162 °C. Compound `Cc1nc(C(=O)NN)c2n1-c1ccc(Cl)cc1C(c1ccccc1)NC2` (stereo not given) came in with a melting point of 225 to 230 °C. `O=C(Oc1ccnc(OC(=O)c2ccccc2)c1)c1ccccc1` returned a melting point of 100 to 102 °C.
